Assay results as given in the supplement of paper PMC11451515.

Tested on: NOMO1
Test: cell viability relative to DMSO control; higher = less cytotoxic
Details: 48 h
How it was run: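 Library compounds in DMSO were pin-dosed in an 11-point threefold series (47 μM to 0.79 nM) onto leukemia cells in 1536-well plates (5 μl). Plates held 500 cells/well of NOMO1 or SEM or 1000 cells/well of P12-Ichikawa, each adapted for at least four passages in each medium. Luminescence was read with CellTiter-Glo One after 48 h at 37°C. Viability means the per-plate percentage relative to DMSO wells, using cell-free wells as background.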

[1] = HPLM + 10% dialyzed FBS, 0.000781 µM
[2] = HPLM + 10% dialyzed FBS, 0.00234 µM
[3] = HPLM + 10% dialyzed FBS, 0.00702 µM
[4] = HPLM + 10% dialyzed FBS, 0.0211 µM
[5] = HPLM + 10% dialyzed FBS, 0.0632 µM
[6] = HPLM + 10% dialyzed FBS, 0.19 µM
[7] = HPLM + 10% dialyzed FBS, 0.569 µM
[8] = HPLM + 10% dialyzed FBS, 1.71 µM
[9] = HPLM + 10% dialyzed FBS, 5.12 µM
[10] = HPLM + 10% dialyzed FBS, 15.4 µM
[11] = HPLM + 10% dialyzed FBS, 46.1 µM
[12] = RPMI 5 mM glucose + 10% FBS, 0.000781 µM
[13] = RPMI 5 mM glucose + 10% FBS, 0.00234 µM
[14] = RPMI 5 mM glucose + 10% FBS, 0.00702 µM
[15] = RPMI 5 mM glucose + 10% FBS, 0.0211 µM
[16] = RPMI 5 mM glucose + 10% FBS, 0.0632 µM
[17] = RPMI 5 mM glucose + 10% FBS, 0.19 µM
[18] = RPMI 5 mM glucose + 10% FBS, 0.569 µM
[19] = RPMI 5 mM glucose + 10% FBS, 1.71 µM
[20] = RPMI 5 mM glucose + 10% FBS, 5.12 µM
[21] = RPMI 5 mM glucose + 10% FBS, 15.4 µM
[22] = RPMI 5 mM glucose + 10% FBS, 46.1 µM
[23] = RPMI 5 mM glucose + 10% dialyzed FBS, 0.000781 µM
[24] = RPMI 5 mM glucose + 10% dialyzed FBS, 0.00234 µM
[25] = RPMI 5 mM glucose + 10% dialyzed FBS, 0.00702 µM
[26] = RPMI 5 mM glucose + 10% dialyzed FBS, 0.0211 µM
[27] = RPMI 5 mM glucose + 10% dialyzed FBS, 0.0632 µM
[28] = RPMI 5 mM glucose + 10% dialyzed FBS, 0.19 µM
[29] = RPMI 5 mM glucose + 10% dialyzed FBS, 0.569 µM
[30] = RPMI 5 mM glucose + 10% dialyzed FBS, 1.71 µM
[31] = RPMI 5 mM glucose + 10% dialyzed FBS, 5.12 µM
[32] = RPMI 5 mM glucose + 10% dialyzed FBS, 15.4 µM
[33] = RPMI 5 mM glucose + 10% dialyzed FBS, 46.1 µM

SMILES | cell viability [1] | cell viability [2] | cell viability [3] | cell viability [4] | cell viability [5] | cell viability [6] | cell viability [7] | cell viability [8] | cell viability [9] | cell viability [10] | cell viability [11] | cell viability [12] | cell viability [13] | cell viability [14] | cell viability [15] | cell viability [16] | cell viability [17] | cell viability [18] | cell viability [19] | cell viability [20] | cell viability [21] | cell viability [22] | cell viability [23] | cell viability [24] | cell viability [25] | cell viability [26] | cell viability [27] | cell viability [28] | cell viability [29] | cell viability [30] | cell viability [31] | cell viability [32] | cell viability [33]
O=C(O)C1(Cc2cccc(Nc3nccs3)n2)CCC(Oc2cccc(Cl)c2F)CC1 (centres undefined) | 98.9% | 116% | 117% | 108% | 104% | 116% | 120% | 69.6% | 45.3% | 34.2% | 35.5% | 110% | 96.2% | 99.5% | 91.9% | 106% | 102% | 96.9% | 74.1% | 43.7% | 31.8% | 23.2% | 107% | 104% | 98.8% | 104% | 105% | 105% | 102% | 72% | 50.4% | 34.4% | 34%
Cn1cnc2c(F)c(Nc3ccc(Br)cc3F)c(C(=O)NOCCO)cc21 | 91.4% | 83.3% | 95.9% | 27.1% | 62.4% | 56.4% | 57.7% | 41.4% | 34.3% | 40% | 35.3% | 83.3% | 80.2% | 82.4% | 16.4% | 75.5% | 66.2% | 50.2% | 42.6% | 37.5% | 31.2% | 36.5% | 77.1% | 90.2% | 98.7% | 37.9% | 75.3% | 49.6% | 45.4% | 40.5% | 39.6% | 34.5% | 34.6%
Cc1c(C)n(Cc2ccc(-c3ccccc3C(=O)O)cc2)c2ccc(C(=O)N[C@@H](C)c3ccc([N+](=O)[O-])cc3)cc12 | 92.6% | 107% | 106% | 103% | 115% | 116% | 102% | 86.8% | 86% | 32.2% | 35.1% | 118% | 107% | 111% | 126% | 105% | 112% | 124% | 101% | 101% | 18.7% | 12.3% | 108% | 121% | 104% | 109% | 114% | 107% | 125% | 106% | 111% | 19.2% | 16.2%
C[C@]12CCC(=O)C=C1CC[C@@H]1[C@@H]2[C@@H](O)C[C@@]2(C)[C@H]1CC[C@]2(O)C(=O)CO | 99% | 109% | 121% | 127% | 117% | 125% | 120% | 115% | 102% | 121% | 109% | 110% | 98.3% | 108% | 112% | 100% | 129% | 129% | 111% | 111% | 105% | 120% | 119% | 111% | 106% | 118% | 116% | 113% | 130% | 125% | 118% | 116% | 127%
CCCCC(=O)O[C@]1(C(=O)CO)[C@H](C)C[C@H]2[C@@H]3CCC4=CC(=O)C=C[C@]4(C)[C@@]3(F)[C@@H](O)C[C@@]21C | 122% | 129% | 124% | 135% | 131% | 124% | 127% | 122% | 123% | 123% | 116% |  |  |  |  |  |  |  |  |  |  |  |  |  |  |  |  |  |  |  |  |  | 
CNCCCC12CCC(c3ccccc31)c1ccccc12 | 106% | 102% | 107% | 110% | 111% | 99.9% | 101% | 90% | 95.2% | 63.5% | 18.3% | 104% | 94.9% | 92.2% | 97.2% | 95.2% | 84.4% | 85.8% | 98.3% | 79.2% | 80.9% | 60.6% | 94.5% | 87.9% | 88.2% | 106% | 91.6% | 91% | 85.1% | 94% | 76.2% | 74.4% | 38.4%
CC[C@]12CC[C@H]3[C@@H](CCC/4=C/C(=O)CC[C@H]34)[C@@H]1\C=C/[C@@]2(O)C#C | 118% | 116% | 132% | 133% | 128% | 113% | 137% | 146% | 133% | 138% | 124% | 110% | 120% | 120% | 123% | 122% | 138% | 133% | 121% | 112% | 130% | 139% | 116% | 133% | 122% | 124% | 126% | 111% | 137% | 133% | 138% | 140% | 132%
OC[C@H]1O[C@H]([C@H](O)[C@@H]1O)N2\C=C/C(=O)NC2=O | 111% | 127% | 105% | 114% | 122% | 107% | 103% | 119% | 118% | 95.4% | 98.4% | 89.4% | 87.3% | 95.6% | 85.4% | 94.7% | 96.5% | 94.6% | 91.4% | 79.4% | 91.6% | 80.8% | 93.9% | 85.1% | 99.8% | 99.3% | 95.7% | 103% | 104% | 93.7% | 96% | 90.5% | 87.8%
CC(C)(C#N)c1cc(Cn2cncn2)cc(C(C)(C)C#N)c1 |  |  |  |  |  |  |  |  |  |  |  | 123% | 106% | 102% | 111% | 109% | 106% | 127% | 114% | 44.2% | 106% | 107% |  |  |  |  |  |  |  |  |  |  | 
CC(C)(C)OC(=O)N[C@H]1CCCCC/C=C\[C@@H]2C[C@@]2(C(=O)N[S+](=O)([O-])C2CC2)NC(=O)[C@@H]2C[C@@H](OC(=O)N3Cc4cccc(F)c4C3)CN2C1=O | 125% | 115% | 124% | 114% | 108% | 121% | 103% | 120% | 114% | 111% | 111% | 96.8% | 93.3% | 97.2% | 100% | 114% | 106% | 113% | 99.9% | 94% | 101% | 102% | 97.4% | 92.7% | 111% | 98.5% | 110% | 100% | 123% | 109% | 104% | 90.1% | 103%
CCC[S+]([O-])c1ccc2[nH]c(NC(=O)OC)nc2c1 (centres undefined) | 102% | 81.8% | 100% | 106% | 98.5% | 109% | 95% | 79.5% | 93.5% | 72.2% | 18.7% | 88.2% | 96.6% | 94.2% | 103% | 101% | 89.9% | 101% | 82% | 93.8% | 71.2% | 15.5% | 94.5% | 91.3% | 94.7% | 87.4% | 84.9% | 88.8% | 81.7% | 76.4% | 81.2% | 58.4% | 19.4%
ClC1=CC=C(C=C1)C(C#N)C2=C(Cl)C=C(C=C2Cl)N3\N=C/C(=O)NC3=O (centres undefined) | 82.4% | 101% | 99.5% | 111% | 112% | 103% | 125% | 104% | 97.8% | 102% | 107% | 100% | 93.4% | 109% | 102% | 93.1% | 94.6% | 114% | 107% | 106% | 100% | 104% | 80.1% | 92.6% | 86.5% | 95.3% | 87.1% | 110% | 99.6% | 96.7% | 94.6% | 103% | 98.4%
C[C@]12CC[C@H]3[C@@H](CC[C@H]4NC(=O)\C=C/[C@]34C)[C@@H]1CC[C@@H]2C(=O)NC5=CC(=CC=C5C(F)(F)F)C(F)(F)F | 123% | 123% | 122% | 118% | 123% | 114% | 101% | 118% | 107% | 96.1% | 94.7% | 117% | 125% | 114% | 100% | 111% | 109% | 112% | 112% | 107% | 96.3% | 98.8% | 105% | 120% | 105% | 118% | 104% | 111% | 111% | 103% | 94.9% | 103% | 96.9%
O=C(O)Cn1nnc(-c2cc(N3CCC(Oc4cc(F)ccc4Br)CC3)no2)n1 | 96% | 97.7% | 97.2% | 111% | 108% | 99.6% | 106% | 34.7% | 29.9% | 24.4% | 24.6% | 102% | 105% | 106% | 109% | 109% | 106% | 104% | 22.9% | 22.1% | 16% | 16.6% | 83.1% | 109% | 100% | 104% | 115% | 113% | 112% | 45.2% | 31.9% | 25.4% | 22.8%
S=C(NCc1ccc2c(c1)OCO2)N1CCN(c2ncnc3c2oc2ccccc23)CC1 | 110% | 113% | 124% | 104% | 105% | 98.2% | 113% | 105% | 75.7% | 64.1% | 9.67% | 117% | 120% | 116% | 110% | 114% | 111% | 109% | 98.2% | 104% | 80% | 26.2% | 116% | 106% | 119% | 107% | 112% | 107% | 112% | 97.1% | 95.8% | 89% | 48.8%
C[C@H](NC(=O)c1sccc1OCc1ccc(Cl)cc1)c1ccccc1 | 80.8% | 88.2% | 80% | 77.6% | 91.5% | 87.5% | 69.1% | 68.5% | 86.9% | 80.1% | 69% | 85.6% | 83.6% | 72.4% | 82.2% | 94.3% | 77.9% | 83.1% | 78.7% | 77.7% | 81.1% | 77.5% | 91.3% | 83.6% | 77.9% | 90.7% | 82% | 76.2% | 66.8% | 82.6% | 90.8% | 77.7% | 87.8%
